According to patent publication US20230091336A1, “CANNABINOID COMPOSITIONS” (priority 2020, published 2023):
Entries after “also recorded” stand apart in the source; their conditions may differ. Marks after values point to notes of the source that are not given here.

Key:
[1] = system: SOCE in U937 human monocytes; assay: SOCE Fura-2 bioassay in U937 cells; settings: Homo sapiens, U-937, read-out: IC50 SOCE, purified cannabinoids, U937; Table 5
Experimental: Briefly, SOCE inhibition experiments were performed as described in Example 8, using each of the hemp extracts listed below and in Tables 6A and 6B at six concentrations each in each of the five cell types listed above to obtain dose response curves, as shown in FIGS. 11A-11SS. […] All data are averages of three independent runs±SEM. […] Hemp extracts used in FIGS. 11A-11SS are: Sour Space Candy (SSC), Hawaiian Haze (HH), Special Sauce (SS), Suver Haze (SH), White CBG (WCBG), Elektra (ELEK), Cherry Wine (CW), Lifter (LIF), Grape Soda (GS).

[2] = system: cisplatin-induced nephritis mice; assay: Cisplatin-induced kidney damage mouse model; assay type: in vivo; settings: for body-weight loss in cisplatin-induced nephritis mice / kidney weight left / kidney weight right / urine / water intake / body weight: 10 mg/kg i.p.; for body-weight loss in cisplatin-induced nephritis mice: FIG. 25; for creatinine and BUN levels, treatment group vs vehicle group: cisplatin model, first statement of b267; for kidney weight left / kidney weight right / urine / water intake / body weight: cisplatin-induced mice at day 3; for body weight: cisplatin 16 mg/kg, n = 4-5; for kidney weight normalized to body weight / magnesium regulation (serum and urine magnesium) vs cisplatin vehicle group: day 3; for kidney weight normalized to body weight: FIG. 26; for magnesium regulation (serum and urine magnesium) vs cisplatin vehicle group: FIGS. 27A-27B; for kidney function as determined by blood urea nitrogen (BUN): day 3 serum, FIG. 28; for amount of PARP-1 protein in kidney (Western blot): vs cis(+) vehicle, FIG. 30B
Experimental: CBGA and/or CBD was injected intraperitoneally (i.p) 2 hours into C57BL/6 male mice (8 wks weighing 23-30 g) before cisplatin injection according to dosage schemes outlined below, and cisplatin-induced kidney damage was compared to normal kidneys. Sham treatment without cisplatin cis(−) was used as a negative control and cisplatin injection cis(+) without cannabinoid extract treatment was used as a positive vehicle control. Mice in group 1 (“vehicle”) received treatment with cisplatin (16 mg/kg body weight, lmg/mL in 0.90% NaCl, i.p) following intraperitoneal injection of vehicle control solution (5 mL/kg body weight) comprising 5% ethanol and 5% Tween80 in 0.9% NaCl. Mice in group 2 (“CBGA”) received treatment with cisplatin (16 mg/kg body weight, 1 mg/mL in 0.9% NaCl, i.p) following injection of CBGA (10 mg/kg body weight) 2 mg/mL in 5% ethanol, 5% Tween80 and 0.9% NaCl Mice in group 3 (“CBD”) received treatment with cisplatin (16 mg/kg body weight, 1 mg/mL in 0.9% NaCl, i.p) following intraperitoneal injection of CBD (10 mg/kg body weight) 2 mg/mL in 5% ethanol, 5% Tween80 and 0.9% NaCl. Mice in group 4 (“CBGA+CBD”) received treatment with cisplatin (16 mg/kg body weight, 1 mg/mL in 0.9% NaCl, i.p) following intraperitoneal injection of CBGA (10 mg/kg body weight)+CBD (10 mg/kg body weight) 2 mg/mL each in 5% ethanol, 5% Tween80 and 0.9% NaCl. Mice in group 5 (“cis(−)”) received sham injections comprising 0.9% NaCl (16 mL/kg body weight) following intraperitoneal injection of vehicle control solution (5 mL/kg body weight) 5% ethanol, 5% Tween80 and 0.9% NaCl.
Mice were euthanized at Day 3 following cisplatin injection, and kidneys were harvested and stored for processing and analysis.
Blood and urine were collected and analyzed to check kidney function. Blood was collected following euthanization, and urine was collected for 24 hrs before euthanasia in metabolic cages. […] Creatinine levels and BUN or urea value were measured from blood serum and urine samples to evaluate the kidney function. […] FIG. 29A-29B show measured creatinine levels in cisplatin-induced nephrotic mice at day 3. Urine was collected using a metabolic cage for 24 hours before sacrifice. Creatinine was assessed by an assay kit (n=4-5). Creatinine concentration in serum (FIG. 29A) and creatinine in urine (FIG. 29B) were maintained in cannabinoid-treated mice. *p<0.05 vs. cis(+) vehicle treatment group.
PARP-1 in cisplatin- and cannabinoid-treated kidney samples was evaluated by Western blot quantification. PARP activity increases to repair DNA damage, while it induces apoptosis when the cells have severe damage and can not be repaired in cisplatin-induced inflammatory kidneys. […] (FIG. 30A) PARP-1 in kidney tissue was evaluated by quantification of Western blot results, wherein α-tubulin was used as an internal control to normalize PARP-1 band quantification. […] PARP-1 was reduced in mice treated with cisplatin and cannabinoids, relative to mice treated with cisplatin and “vehicle” solution (FIG. 30B). Densitometric analysis was performed from the result of western blotting and presented as a bar graph (n=4-5). […] The rightmost bar represents the sham treatment (“cis(−)”), wherein mice received vehicle injections instead of both cisplatin and cannabinoid extracts as a negative control. **p<0.01 vs. cis(+) vehicle treatment group. CBGA reduced the amount of PARP-1 protein detected in cisplatin-induced nephritis mice. […]

[3] = system: UUO mice; assay: Unilateral Ureteral Obstruction (UUO) mouse model of kidney fibrosis; assay type: in vivo; settings: for interstitial area increase in UUO kidneys: FIG. 19D; for macrophage infiltration in UUO kidneys (F4/80): FIG. 20B; for α-SMA production in UUO kidneys vs vehicle (immunostaining): FIG. 24B; for urine / water intake / body weight / kidney weight CLK / kidney weight UUO: UUO mice at day 7; for urine / water intake / kidney weight CLK / kidney weight UUO: 10 mg/kg i.p. daily; for body weight: 10 mg/kg i.p. daily day 0 to day 6, n = 5; for magnesium output in urine vs vehicle: 24 h urine, FIG. 18; for kidney weight CLK: contralateral kidney; for phosphorylated Smad3 protein in UUO kidneys (Western blotting) / α-SMA protein in UUO kidneys (Western blotting): cortical kidney tissue, FIG. 23; for collagen type I production in UUO kidneys vs vehicle / fibronectin production in UUO kidneys vs vehicle: immunostaining; for collagen type I production in UUO kidneys vs vehicle: FIG. 21B; for fibronectin production in UUO kidneys vs vehicle: FIG. 22B; for tubular dilation in UUO kidneys: number of dilated tubules per field, FIG. 19B; for kidney weight UUO: obstructed kidney; for tubule loss in UUO kidneys: total number of renal tubules per field, FIG. 19C
From the text: The Unilateral Ureteral Obstruction (UUO) model is a mouse model of kidney disease that is associated with and characterized by progressive tubulointerstitial injury and fibrosis. This model can be used to identify many of the molecular and cellular events that occur in progressive kidney fibrosis. […] TRPM7 represents a promising therapeutic target in kidney fibrosis and TRPM7 inhibitors may act as anti-fibrotic pharmacological tools.
C57BL/6 male mice (6 wks weighing 20-25 g) were used in the UUO model. Under isoflurane (3.0% for induction and 1.5% for maintenance) anesthesia, ureteral obstruction was achieved by ligating the left ureter with a 3-0 silk suture through a left lateral incision. Control and experimental groups for these experiments were created as follows:
Group 1: Control (5 mL/kg body weight) 5% ethanol and 5% Tween80 in 0.9% NaCl
Group 2: CBGA (10 mg/kg body weight) 2 mg/mL in 5% ethanol, 5% Tween80 and 0.9% NaCl
Group 3: CBD (10 mg/kg body weight) 2 mg/mL in 5% ethanol, 5% Tween80 and 0.9% NaCl
Group 4: CBGA (10 mg/kg body weight)+CBD (10 mg/kg body weight), 2 mg/mL each in 5% ethanol, 5% Tween80 and 0.9% NaCl
Mice were injected once daily with 10 mg/kg cannabinoids (CBGA, CBD, or both) as well as vehicle control daily beginning immediately after surgery and until Day 6. Mice were euthanized at Day 7 after surgery. Obstructed kidneys (UUO) and non-obstructed contralateral kidneys (CLK) were collected and stored.
FIGS. 19A-19D depict the protection of kidney structure following cannabinoid treatment, as observed during experiments.
Immunohistochemical analysis. To evaluate renal fibrosis in UUO kidneys, immunoreactivities of F4/80 (macrophage marker), collagen type I, fibronectin, and α-smooth muscle actin (α-SMA) were determined using a standard biotin-streptavidin-peroxidase method. The staining-positive areas were calculated by Image J. The threshold was set to automatically compute the positive areas for each staining and the ratio of the positive areas to the whole interstitial area. Number of macrophages (FIG. 20A and FIG. 20B), collagen type I production in stained kidney tissue (FIG. 21A and FIG. 21B), and fibronectin production in stained kidney tissue (FIG. 22A and FIG. 22B) were quantified in UUO kidneys, showing that extracellular matrix production and/or deposition in kidney tissue were also affected with CBGA treatment.

Compound | IC50 [1] | body-weight loss in cisplatin-induced nephritis mice [2] | creatinine and BUN levels, treatment group vs vehicle group [2] | kidney weight left [2] | kidney weight right [2] | urine [2] | water intake [2] | body weight [2] | kidney weight normalized to body weight [2] | magnesium regulation (serum and urine magnesium) vs cisplatin vehicle group [2] | kidney function as determined by blood urea nitrogen (BUN) [2] | amount of PARP-1 protein in kidney (Western blot) [2] | interstitial area increase in UUO kidneys [3] | macrophage infiltration in UUO kidneys (F4/80) [3] | α-SMA production in UUO kidneys vs vehicle (immunostaining) [3] | urine [3] | water intake [3] | body weight [3] | magnesium output in urine vs vehicle ([3]; UUO mice day 7) | kidney weight CLK [3] | other results
C=C(C)[C@@H]1CCC(C)=C[C@H]1c1c(O)cc(CCCCC)cc1O [CBD, (1′R,2′R)-5′-methyl-4-penlyl-2′-(prop-1-en-2-yl)-1′,2′,3′,4′-tetrahydro-[1,1′-biphenyl]-2,6-diol] | > 50 µM | didn't affect | did not change | 121 ± 5.0** mg | 132 ± 6.8 mg | 1.042 ± 0.131 mL | 1.79 ± 0.37** mL | 20.23 ± 0.82* g | No significant difference | protected magnesium regulation | maintained kidney function | reduced | inhibited interstitial area increase | strongly inhibited macrophage infiltration | inhibited | 2.01 ± 0.44 mL | 4.9 ± 0.4 mL | 22.08 ± 0.45 g | recovered | 175 ± 0.7 mg | phosphorylated Smad3 protein in UUO kidneys (Western blotting) [3]: suppressed; α-SMA protein in UUO kidneys (Western blotting) [3]: suppressed; collagen type I production in UUO kidneys vs vehicle [3]: inhibit; fibronectin production in UUO kidneys vs vehicle [3]: inhibit; tubular dilation in UUO kidneys [3]: inhibited tubular dilation; kidney weight UUO [3]: 172 ± 0.8^ mg; tubule loss in UUO kidneys [3]: inhibited tubule loss
CCCCCc1cc(O)c(C/C=C(\C)CCC=C(C)C)c(O)c1C(=O)O [CBGA, (E)-3-(3,7-dimethylocta-2,6-dien-1-yl)-2,4-dihydroxy-6-pentylbenzoic acid] | 2.23 µM | recovered | did not change | 128 ± 8.2** mg | 139 ± 10.8 mg | 1.162 ± 0.128 mL | 2.50 ± 0.50* mL | 20.85 ± 1.29 g | No significant difference | maintained magnesium regulation | maintained kidney function | reduced | inhibited increases in interstitial area | inhibited macrophage infiltration | inhibited | 1.88 ± 0.17 mL | 4.7 ± 0.2 mL | 21.55 ± 0.60 g | recovered | 167 ± 0.7 mg | mRNA expression of inflammatory markers (TNF-α, IL-6, Cxcl10, ICAM-1, MCP-1, CRP, ET-1) in kidney ([2]; qRT-PCR, cis(+)-induced increase, FIGS. 31A-31G): significantly reduced; kidney atrophy / loss of UUO kidney weight vs vehicle ([3]; UUO mice day 7, 10 mg/kg daily, FIG. 17B, 10 mg/kg): less kidney atrophy; also recorded: ameliorated the loss of kidney weight; recovery of body weight loss vs vehicle ([3]; UUO mice, 10 mg/kg daily, FIG. 16): faster recovery of body weight loss; phosphorylated Smad3 protein in UUO kidneys (Western blotting) [3]: suppressed; α-SMA protein in UUO kidneys (Western blotting) [3]: suppressed; collagen type I production in UUO kidneys vs vehicle [3]: inhibited; fibronectin production in UUO kidneys vs vehicle [3]: inhibited; tubular dilation in UUO kidneys [3]: inhibited tubular dilation; kidney weight UUO [3]: 163 ± 0.9^ mg; tubule loss in UUO kidneys [3]: inhibited tubule loss
